Laboratory results taken from ChEMBL document CHEMBL1201862, “PubChem BioAssay data set” (2004).
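Grown in 96-well plates, cells were treated for 48 hours with each compound at five concentrations. Insufficient inhibition: endpoint recorded as highest concentration tested. GI50 = concentration required for 50% inhibition of growth.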 Calls of active or inactive are those of the source. No stated cut-off is given here; in the data, active = GI50 up to about 1.1 µM and inactive = higher.

Experiments:
Experiment in all cases: inhibition of tumour cell growth, NCI panel, 48 h
786-0 = system: 786-0
A498 = system: A498
A549 = system: A549
ACHN = system: ACHN
BT-549 = system: BT-549
CAKI-1 = system: CAKI-1
CCRF-CEM = system: CCRF-CEM
COLO 205 = system: COLO 205
DLD-1 = system: DLD-1
DMS-114 = system: DMS-114
DMS-273 = system: DMS-273
DU-145 = system: DU-145
EKVX = system: EKVX
HCC 2998 = system: HCC 2998
HCT-116 = system: HCT-116
HCT-15 = system: HCT-15
HL-60 = system: HL-60
HOP-18 = system: HOP-18
HOP-62 = system: HOP-62
HOP-92 = system: HOP-92
HT-29 = system: HT-29
Hs-578T = system: Hs-578T
IGROV-1 = system: IGROV-1
K562 = system: K562
KM-20L2 = system: KM-20L2
KM12 = system: KM12
LOX IMVI = system: LOX IMVI
M14 = system: M14
M19-MEL = system: M19-MEL
MCF7 = system: MCF7
MDA-MB-231 = system: MDA-MB-231
MDA-MB-435 = system: MDA-MB-435
MDA-N = system: MDA-N
MOLT-4 = system: MOLT-4
Malme-3M = system: Malme-3M
NCI-H226 = system: NCI-H226
NCI-H23 = system: NCI-H23
NCI-H460 = system: NCI-H460
NCI-H522 = system: NCI-H522
NCI/ADR-RES = system: NCI/ADR-RES
OVCAR-3 = system: OVCAR-3
OVCAR-4 = system: OVCAR-4
OVCAR-5 = system: OVCAR-5
OVCAR-8 = system: OVCAR-8
PC-3 = system: PC-3
RXF 393 = system: RXF 393
SF-268 = system: SF-268
SF-295 = system: SF-295
SF-539 = system: SF-539
SK-MEL-28 = system: SK-MEL-28
SK-MEL-2 = system: SK-MEL-2
SK-MEL-5 = system: SK-MEL-5
SK-OV-3 = system: SK-OV-3
SN12C = system: SN12C
SNB-19 = system: SNB-19
SNB-75 = system: SNB-75
SNB-78 = system: SNB-78
SR = system: SR
SW-620 = system: SW-620
T47D = system: T47D
TK-10 = system: TK-10
U-251 = system: U-251
UACC-62 = system: UACC-62
UO-31 = system: UO-31
XF498 = system: XF498

Nc1ccn([C@@H]2C=C(CO)[C@@H](O)[C@H]2O)c(=O)n1
GI50 (786-0): 103 nM (active) | GI50 (A498): 1840 nM (inactive) | GI50 (A549): 59.2 nM (active) | GI50 (ACHN): 55.9 nM (active) | GI50 (BT-549): 2060 nM (inactive) | GI50 (CAKI-1): 101 nM (active) | GI50 (CCRF-CEM): 61.7 nM (active) | GI50 (COLO 205): 198 nM (active) | GI50 (DLD-1): 151 nM (active) | GI50 (DMS-114): 417 nM (active) | GI50 (DMS-273): 256 nM (active) | GI50 (DU-145): 26.1 nM (active) | GI50 (EKVX): 562 nM (active) | GI50 (HCC 2998): 1290 nM (inactive) | GI50 (HCT-116): 50 nM (active) | GI50 (HCT-15): 91.6 nM | GI50 (HL-60): 50 nM (active) | GI50 (HOP-18): 8090 nM (inactive) | GI50 (HOP-62): 102 nM (active) | GI50 (HOP-92): 224 nM (active) | GI50 (HT-29): 110 nM (active) | GI50 (Hs-578T): 2240 nM (inactive) | GI50 (IGROV-1): 108 nM (active) | GI50 (K562): 68.1 nM (active) | GI50 (KM-20L2): 91.2 nM (active) | GI50 (KM12): 143 nM (active) | GI50 (LOX IMVI): 66.7 nM (active) | GI50 (M14): 186 nM (active) | GI50 (M19-MEL): 308 nM (active) | GI50 (MCF7): 50 nM (active) | GI50 (MDA-MB-231): 467 nM (active) | GI50 (MDA-MB-435): 50 nM (active) | GI50 (MDA-N): 35.3 nM (active) | GI50 (MOLT-4): 50.1 nM (active) | GI50 (Malme-3M): 1860 nM (inactive) | GI50 (NCI-H226): 5530 nM (inactive) | GI50 (NCI-H23): 169 nM (active) | GI50 (NCI-H460): 59.3 nM (active) | GI50 (NCI-H522): 600 nM (active) | GI50 (NCI/ADR-RES): 92 nM (active) | GI50 (OVCAR-3): 2200 nM (inactive) | GI50 (OVCAR-4): 216 nM (active) | GI50 (OVCAR-5): 1480 nM (inactive) | GI50 (OVCAR-8): 81.7 nM (active) | GI50 (PC-3): 55.5 nM (active) | GI50 (RXF 393): 530 nM (active) | GI50 (SF-268): 269 nM (active) | GI50 (SF-295): 155 nM (active) | GI50 (SF-539): 254 nM (active) | GI50 (SK-MEL-28): 298 nM (active) | GI50 (SK-MEL-2): 10000 nM (inactive) | GI50 (SK-MEL-5): 1060 nM (active) | GI50 (SK-OV-3): 248 nM (active) | GI50 (SN12C): 54.6 nM (active) | GI50 (SNB-19): 244 nM (active) | GI50 (SNB-75): 2070 nM (inactive) | GI50 (SNB-78): 3280 nM (inactive) | GI50 (SR): 9.46 nM (active) | GI50 (SW-620): 84.9 nM (active) | GI50 (T47D): 483 nM (active) | GI50 (TK-10): 1050 nM (active) | GI50 (U-251): 321 nM (active) | GI50 (UACC-62): 227 nM (active) | GI50 (UO-31): 105 nM (active) | GI50 (XF498): 6220 nM (inactive)
